This is an account of results in article PMC8976073 (Nature Communications, 2022).

Common to all, as to assay: Competition binding: inhibition of WK(FITC)YMVm binding to FPR2 (wild type and mutants), HEK293F cells
Assay [1] has as its target T1, FPR2 (Homo sapiens, UniProt P25090, E89A).
T1 construct: expressed in transfected cells; host or cells: HEK293F cells, pTT5 vector
T1 sequence (P25090 1-351 E89A): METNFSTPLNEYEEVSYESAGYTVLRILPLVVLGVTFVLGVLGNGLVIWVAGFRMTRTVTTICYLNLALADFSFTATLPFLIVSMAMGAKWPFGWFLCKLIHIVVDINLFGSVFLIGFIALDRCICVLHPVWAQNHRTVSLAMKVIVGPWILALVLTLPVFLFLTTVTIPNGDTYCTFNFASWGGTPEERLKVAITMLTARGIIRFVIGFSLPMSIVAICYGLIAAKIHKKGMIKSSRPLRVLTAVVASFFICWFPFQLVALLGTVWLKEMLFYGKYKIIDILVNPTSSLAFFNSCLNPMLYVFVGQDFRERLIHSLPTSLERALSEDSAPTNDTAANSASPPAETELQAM
Particulars: FPR2 E89A, mean ± SEM. On the procedure: (§1) The genes of wild-type FPR1 and FPR2 and mutants with a Flag tag at the N termini were cloned into pTT5 vector (Invitrogen) and expressed in HEK293F cells (Invitrogen). Cells were harvested 48 h post transfection with 1 μg ml^−1 plasmid. Cell-surface expression of the receptors was measured by mixing 10 μl cells with 15 μl of TBS buffer supplemented with 4% BSA, 20% (v/v) viability-staining solution 7-AAD (Invitrogen, Cat#00-6993-50), and 0.1% (v/v) anti-FLAG M2-FITC antibody (Sigma, Cat#F4049) at 4 °C for 20 min. After incubation, 175 μl of TBS buffer was added and the fluorescent signal was measured using a flow-cytometry reader (Guava easyCyte HT, Millipore). Then, the cells were washed and resuspended to a final concentration of 1 × 10^6 cells per ml in Hanks’ Balanced Salt Solution (HBSS) buffer supplemented with 0.5% bovine serum albumin (BSA) and 20 mM HEPES, pH 7.4.
(§2) The mean fluorescent intensity of each well was then read by the FCM reader. Total binding and nonspecific binding were measured in the absence and presence of the unlabeled ligand (200 μM WKYMVm), respectively. […] Mean fluorescent-intensity values were measured by flow cytometry. Data were analyzed using Prism 8.0 (GraphPad software).

The target in assay [2] is T2, FPR2 (Homo sapiens, UniProt P25090, E89G).
T2 construct: expressed in transfected cells; host or cells: HEK293F cells, pTT5 vector
T2 sequence (P25090 1-351 E89G): T1 sequence (P25090 1-351 E89A) with A89G
Particulars: FPR2 E89G, mean ± SEM. Here is the method: as §1, §2

The target in assay [3] is T3, FPR2 (Homo sapiens, UniProt P25090, L198W).
T3 construct: expressed in transfected cells; host or cells: HEK293F cells, pTT5 vector
T3 sequence (P25090 1-351 L198W): T1 sequence (P25090 1-351 E89A) with A89E, L198W
The conditions noted are these: FPR2 L198W, mean ± SEM. Here is the method:
as §1, §2

The target in assay [4] is T4, FPR2 (Homo sapiens, UniProt P25090, L272W).
T4 construct: expressed in transfected cells; host or cells: HEK293F cells, pTT5 vector
T4 sequence (P25090 1-351 L272W): T1 sequence (P25090 1-351 E89A) with A89E, L272W
The conditions noted are these: FPR2 L272W, mean ± SEM. Here is the method: as §1, §2

The target in assay [5] is T5, FPR2 (Homo sapiens, UniProt P25090, M85K).
T5 construct: expressed in transfected cells; host or cells: HEK293F cells, pTT5 vector
T5 sequence (P25090 1-351 M85K): T1 sequence (P25090 1-351 E89A) with M85K, A89E
Particulars: FPR2 M85K, mean ± SEM. Here is the method:
as §1, §2

The target of assay [6] is T6, FPR2 (Homo sapiens, UniProt P25090, S211L).
T6 construct: expressed in transfected cells; host or cells: HEK293F cells, pTT5 vector
Particulars: FPR2 Construct 2, mean ± SEM. On the procedure: as §1, §2

Residue numbers refer to the chain shown, from its start.

T6 sequence (P25090 with tags, fused parts or gaps S211L): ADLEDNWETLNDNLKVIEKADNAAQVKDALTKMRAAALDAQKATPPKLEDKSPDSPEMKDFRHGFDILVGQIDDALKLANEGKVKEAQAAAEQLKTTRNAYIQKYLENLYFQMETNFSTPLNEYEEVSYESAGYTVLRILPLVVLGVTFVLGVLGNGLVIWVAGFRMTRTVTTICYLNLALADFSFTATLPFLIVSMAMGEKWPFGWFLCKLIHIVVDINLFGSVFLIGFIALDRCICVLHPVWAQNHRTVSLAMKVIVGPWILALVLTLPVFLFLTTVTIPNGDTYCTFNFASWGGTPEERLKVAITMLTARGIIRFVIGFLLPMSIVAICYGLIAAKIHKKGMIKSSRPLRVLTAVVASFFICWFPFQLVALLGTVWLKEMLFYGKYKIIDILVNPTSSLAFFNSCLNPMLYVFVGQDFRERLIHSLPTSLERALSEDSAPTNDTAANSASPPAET

With `CC[C@H](C)[C@H](NC(=O)[C@H](CCC(=O)O)NC(=O)[C@H](CO)NC(=O)[C@@H](NC(=O)[C@H](CC(C)C)NC(=O)[C@H](CC(C)C)NC(=O)[C@H](CC(C)C)NC(=O)[C@H](CC(C)C)NC(=O)[C@H](CS)NC(=O)[C@H](CO)NC(=O)[C@H](Cc1ccccc1)NC(=O)CNC(=O)[C@H](CCCNC(=N)N)NC(=O)[C@@H]1CCCN1C(=O)[C@H](C)NC(=O)[C@H](CCSC)NC=O)[C@@H](C)O)C(=O)N[C@@H](CC(=O)O)C(=O)N[C@@H](CC(C)C)C(=O)N1CCC[C@H]1C(=O)N[C@H](C(=O)N[C@@H](CCCCN)C(=O)N[C@@H](CCCNC(=N)N)C(=O)N[C@@H](CCCNC(=N)N)C(=O)N[C@@H](C)C(=O)O)C(C)C` [fHN, N-formyl humanin], the inhibition constant Ki (in general, a measure of affinity in units of concentration, obtained from inhibition or displacement) was 2240 nM at FPR2 [1]; 575 nM on FPR2 [2]; 646 nM on FPR2 [3]; 479 nM on FPR2 [4]; 309 nM on FPR2 [5]; 525 nM at FPR2 [6].
